# Results taken from PubChem BioAssay (NCI).
#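 Five concentrations, 48 hours, 96-well plates. At the TGI there is no net growth.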
# Columns and labels:
# Assay in all cases: DTP human tumour cell line panel, 48 h
# [1] = tested on: 786-0 renal
# [2] = tested on: SNB-75 CNS
# [3] = tested on: RXF-631 renal
# [4] = tested on: UACC-257 melanoma
# [5] = tested on: A549 NSCLC
# [6] = tested on: LOX IMVI melanoma
# [7] = tested on: M14 melanoma
# [8] = tested on: OVCAR-4 ovarian
# [9] = tested on: EKVX NSCLC
# [10] = tested on: UACC-62 melanoma
# [11] = tested on: SK-MEL-28 melanoma
# [12] = tested on: RXF 393 renal
# [13] = tested on: SK-OV-3 ovarian
# [14] = tested on: LXFL 529 NSCLC
# [15] = tested on: HOP-18 NSCLC
# [16] = tested on: IGROV1 ovarian
# [17] = tested on: NCI-H226 lung
# [18] = tested on: OVCAR-8 ovarian
# [19] = tested on: SNB-19 CNS
# [20] = tested on: SF-539 CNS
# [21] = tested on: CCRF-CEM leukemia
# [22] = tested on: UO-31 renal
# [23] = tested on: CAKI-1 renal
# [24] = tested on: HCC-2998 colon
# [25] = tested on: HL-60(TB) leukemia
# [26] = tested on: SK-MEL-5 melanoma
# [27] = tested on: M19-MEL melanoma
# [28] = tested on: OVCAR-3 ovarian
# [29] = tested on: DMS 273 small cell lung
# [30] = tested on: RPMI-8226 leukemia
# [31] = tested on: SNB-78 CNS
# [32] = tested on: KM12 colon
# [33] = tested on: HOP-62 NSCLC
# [34] = tested on: U251 CNS
# [35] = tested on: ACHN renal
# [36] = tested on: OVCAR-5 ovarian
# [37] = tested on: SN12C renal
# [38] = tested on: SW-620 colon
# [39] = tested on: K-562 leukemia
# [40] = tested on: NCI-H460 lung
# [41] = tested on: DMS 114 small cell lung
# [42] = tested on: TK-10 renal
# [43] = tested on: HCT-116 colon
# [44] = tested on: HCT-15 colon
# [45] = tested on: NCI-H522 lung
# [46] = tested on: MOLT-4 leukemia
# [47] = tested on: SK-MEL-2 melanoma
# [48] = tested on: MALME-3M melanoma
# [49] = tested on: HT29 colon
# [50] = tested on: KM20L2 colon
# [51] = tested on: DLD-1 colon
# [52] = tested on: SF-295 CNS
# [53] = tested on: COLO 205 colon
# [54] = tested on: SR leukemia
# [55] = tested on: HOP-92 NSCLC
# [56] = tested on: NCI-H23 lung
# [57] = tested on: XF 498 CNS
# [58] = tested on: A498 renal
structure (smiles),measurement,setting,value
Cc1ccc(-c2cc(=O)c3cc(C)c(C)c(C(=O)O)c3o2)cc1C,TGI,[1],> 100 µM
same,TGI,[2],> 100 µM
same,TGI,[3],> 100 µM
same,TGI,[4],> 100 µM
same,TGI,[5],> 100 µM
same,TGI,[6],> 100 µM
same,TGI,[7],> 100 µM
same,TGI,[8],> 100 µM
same,TGI,[9],> 100 µM
same,TGI,[10],> 100 µM
same,TGI,[11],> 100 µM
same,TGI,[12],> 100 µM
same,TGI,[13],> 100 µM
same,TGI,[14],> 100 µM
same,TGI,[15],> 100 µM
same,TGI,[16],> 100 µM
same,TGI,[17],> 100 µM
same,TGI,[18],> 100 µM
same,TGI,[19],> 100 µM
same,TGI,[20],> 100 µM
same,TGI,[21],> 100 µM
same,TGI,[22],> 100 µM
same,TGI,[23],89.5 µM
same,TGI,[24],> 100 µM
same,TGI,[25],> 100 µM
same,TGI,[26],> 100 µM
same,TGI,[27],> 100 µM
same,TGI,[28],> 100 µM
same,TGI,[29],> 100 µM
same,TGI,[30],> 100 µM
same,TGI,[31],> 100 µM
same,TGI,[32],> 100 µM
same,TGI,[33],> 100 µM
same,TGI,[34],> 100 µM
same,TGI,[35],> 100 µM
same,TGI,[36],> 100 µM
same,TGI,[37],> 100 µM
same,TGI,[38],> 100 µM
same,TGI,[39],> 100 µM
same,TGI,[40],> 100 µM
same,TGI,[41],> 100 µM
same,TGI,[42],> 100 µM
same,TGI,[43],> 100 µM
same,TGI,[44],> 100 µM
same,TGI,[45],> 100 µM
same,TGI,[46],> 100 µM
same,TGI,[47],> 100 µM
same,TGI,[48],> 100 µM
same,TGI,[49],> 100 µM
same,TGI,[50],> 100 µM
same,TGI,[51],> 100 µM
same,TGI,[52],> 100 µM
same,TGI,[53],> 100 µM
same,TGI,[54],> 100 µM
same,TGI,[55],> 100 µM
same,TGI,[56],> 100 µM
COc1ccc2c3c(coc13)C(CCC(=O)O)CC2 (stereo not given),TGI,[1],> 100 µM
same,TGI,[2],> 100 µM
same,TGI,[3],> 100 µM
same,TGI,[4],> 100 µM
same,TGI,[5],> 100 µM
same,TGI,[6],> 100 µM
same,TGI,[7],> 100 µM
same,TGI,[57],> 100 µM
same,TGI,[8],> 100 µM
same,TGI,[9],> 100 µM
same,TGI,[10],> 100 µM
same,TGI,[11],> 100 µM
same,TGI,[12],> 100 µM
same,TGI,[13],> 100 µM
same,TGI,[14],> 100 µM
same,TGI,[15],> 100 µM
same,TGI,[16],> 100 µM
same,TGI,[18],> 100 µM
same,TGI,[19],> 100 µM
same,TGI,[20],> 100 µM
same,TGI,[23],> 100 µM
same,TGI,[24],> 100 µM
same,TGI,[26],> 100 µM
same,TGI,[27],> 100 µM
same,TGI,[28],> 100 µM
same,TGI,[58],> 100 µM
same,TGI,[29],> 100 µM
same,TGI,[31],> 100 µM
same,TGI,[33],> 100 µM
same,TGI,[34],> 100 µM
same,TGI,[35],> 100 µM
same,TGI,[37],> 100 µM
same,TGI,[38],> 100 µM
same,TGI,[40],> 100 µM
same,TGI,[41],> 100 µM
same,TGI,[42],> 100 µM
same,TGI,[43],> 100 µM
same,TGI,[44],> 100 µM
same,TGI,[49],> 100 µM
same,TGI,[50],> 100 µM
same,TGI,[51],> 100 µM
same,TGI,[52],> 100 µM
same,TGI,[53],> 100 µM
same,TGI,[56],> 100 µM
